From patent US20190023743A1, “METHODS AND COMPOSITIONS FOR MODULATING DRUG-POLYMER ARCHITECTURE, PHARMACOKINETICS AND BIODISTRIBUTION” (priority 2007, published 2019)

Key:
[1] = tested on: C26 colon carcinoma tumor; experiment: Survival of tumor-bearing mice, C26 colon carcinoma; assay type: in vivo, Balb/C mice; conditions: free doxorubicin 12.5, micelle 25 mg drug/kg body weight, sacrificed after >15% body weight loss, Kaplan Meier analysis
Experimental: Eight days after subcutaneous implantation of C26 colon carcinoma tumor cells, Balb/C mice were randomized and treated. The mice were systemically administered either a PBS control or does of approximately equal toxicity of free doxorubicin at 12.5 mg drug/kg body weight or 25 mg drug/kg body weight micelle doxorubicin-ELP. Mice were sacrificed after losing >15% of their body weight due to tumor burden. The treatment groups were blinded during measurement.
The data shown in FIG. 13 were determined as follows: Eight days after subcutaneous implantation of C26 colon carcinoma tumor cells, Balb/C mice were randomized and treated. […] The mice were sacrificed after losing >15% of their body weight due to tumor burden. The treatment groups were blinded during measurement.

[2] = 4 days post administration; free doxorubicin 12.5, micelle 25, unimer 6.3 mg drug/kg body weight; Balb/C mice bearing C26 tumors
Experimental: Animals dosed near the maximum tolerated amount of doxorubicin lose body weight, and weight loss 4 days post doxorubicin administration is used in this experiment as a gross indicator of toxicity. Balb/C mice bearing C26 colon carcinoma tumors were systemically administered PBS, free doxorubicin, micelle doxorubicin-ELP, or unimer doxorubicin-ELP at 0, 12.5, 25, and 6.3 mg drug/kg body weight respectively. […] Error bars indicate the standard deviation (n=5).
The toxicity of doxorubicin-ELP was estimated by body weight loss. Animals that were dosed near the maximum tolerated amount of free doxorubicin, micelle doxorubicin-ELP or unimer doxorubicin-ELP lost body weight, and the weight observed 4 days after the injection of the doxorubicin composition was taken as a gross indicator of toxicity. Balb/C mice bearing C26 colon carcinoma tumors were systemically administered either PBS as a control or free doxorubicin, micelle doxorubicin-ELP, or unimer doxorubicin-ELP at 12.5, 25, and 6.3 mg drug/kg body weight, respectively. […] Error bars indicate the standard deviation (n=5).

Question: With `COc1cccc2c1C(=O)c1c(O)c3c(c(O)c1C2=O)C[C@@](O)(C(=O)CO)C[C@@H]3O[C@H]1C[C@H](N)[C@H](O)[C@H](C)O1` [free doxorubicin, doxorubicin] as the compound, how does the survival time [1] read?
Answer: did not significantly effect survival time

Question: And the survival time ([1]; listed as Free doxorubicin)?
Answer: did not have any significant effect on survival

Question: And the “toxicity estimated by body weight loss” value [2]?
Answer: approximately equally toxic
